Data published in patent US8466156B2, “2-phenyl-4-cyclopropyl-pyrimidine derivatives” (Actelion Pharmaceuticals Ltd., priority 2008, dated 2013).
pIC50: −log10 of the molar value.

What follows are compounds tested against T1, human P2Y12 receptor (Homo sapiens, UniProt Q9H244) (assay: P2Y12 receptor binding assay (displacement of tritium-labeled 2-methyl-S-ADP on CHO cells)). Conditions: CHO cells with recombinant expression of the human P2Y12 receptor, 2 hours at RT, Example compounds table.
T1 construct: expressed in transfected cells; host or cells: Chinese Hamster Ovary (CHO) cells
T1 sequence (Q9H244 whole entry): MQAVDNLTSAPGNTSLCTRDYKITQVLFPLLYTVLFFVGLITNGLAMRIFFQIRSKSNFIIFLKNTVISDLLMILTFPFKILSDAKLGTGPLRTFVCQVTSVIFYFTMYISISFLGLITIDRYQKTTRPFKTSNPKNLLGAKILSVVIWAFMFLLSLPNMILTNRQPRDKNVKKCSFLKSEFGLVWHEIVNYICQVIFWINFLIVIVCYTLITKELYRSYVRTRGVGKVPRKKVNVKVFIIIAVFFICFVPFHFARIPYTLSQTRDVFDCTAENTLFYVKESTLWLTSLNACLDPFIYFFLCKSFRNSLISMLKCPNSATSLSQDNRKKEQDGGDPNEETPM
Protocol: P2Y12 Receptor Binding Assay
Chinese Hamster Ovary (CHO) cells with recombinant expression of the human P2Y12 receptor were cultured in 24 well cell-culture plates. Cells were washed three times with binding buffer (50 mM Tris pH 7.4, 100 mM NaCl, 1 mM EDTA, 0.5% BSA). The cells were then incubated with 0.5 ml per well binding buffer containing tritium-labeled 2-methyl-thio-adenosine 5′-diphosphate (2-methyl-S-ADP) (between 100'000 and 300'000 dpm per well) and various concentrations of test compounds. After incubation at RT for 2 hours, cells were washed three times with binding buffer. Then, cells were solubilized by addition of 0.5 ml solubilization buffer (SDS, NaOH, EDTA). The content of each well was then transferred into beta-counter vials and 2.0 ml of Ultima Gold Scintillation liquid was added.

Compound	pIC50
CCCCOC(=O)N1CCN(C(=O)[C@H](CCC(=O)O)NC(=O)c2cc([C@@H]3C[C@H]3COC)nc(-c3ccccc3)n2)CC1 (mixture of isomers) [Example 2, 4-((S)-4-carboxy-2-{[6-(trans-2-methoxymethyl-cyclopropyl)-2-phenyl-pyrimidine-4-carbonyl]-amino}-butyryl)-piperazine-1-carboxylic acid butyl ester]	8.52
CCCCOC(=O)N1CCN(C(=O)[C@H](CCC(=O)O)NC(=O)c2cc([C@@H]3C[C@@H]3COC)nc(-c3ccccc3)n2)CC1 (mixture of isomers) [Example 6, 4-((S)-4-carboxy-2-{[6-(cis-2-methoxymethyl-cyclopropyl)-2-phenyl-pyrimidine-4-carbonyl]-amino}-butyryl)-piperazine-1-carboxylic acid butyl ester]	8.05
CCCCOC(=O)N1CCN(C(=O)[C@H](CCC(=O)O)NC(=O)c2cc(C3CC3)nc(-c3ccccc3)n2)CC1 [Example 1, 4-{(S)-4-carboxy-2-[(6-cyclopropyl-2-phenyl-pyrimidine-4-carbonyl)-amino]-butyryl}-piperazine-1-carboxylic acid butyl ester]	8.22

Second part, the compound after the results:

pIC50	Compound
8.30	CCCCOC(=O)N1CCN(C(=O)[C@H](CCC(=O)O)NC(=O)c2cc([C@H]3C[C@@H]3COC)nc(-c3ccccc3)n2)CC1 [Example 3, 4-((S)-4-carboxy-2-{[6-((1S,2S)-2-methoxymethyl-cyclopropyl)-2-phenyl-pyrimidine-4-carbonyl]-amino}-butyryl)-piperazine-1-carboxylic acid butyl ester]
8.40	CCCCOC(=O)N1CCN(C(=O)[C@H](CCC(=O)O)NC(=O)c2cc([C@H]3C[C@@H]3CO)nc(-c3ccccc3)n2)CC1 [Example 4, 4-((S)-4-carboxy-2-{[6-((1S,2S)-2-hydroxymethyl-cyclopropyl)-2-phenyl-pyrimidine-4-carbonyl]-amino}-butyryl)-piperazine-1-carboxylic acid butyl ester]
8.70	CCCCOC(=O)N1CCN(C(=O)[C@H](CCC(=O)O)NC(=O)c2cc([C@H]3C[C@@H]3COC)nc(-c3ccc(F)cc3)n2)CC1 [Example 5, 4-((S)-4-carboxy-2-{[2-(4-fluoro-phenyl)-6-((1S,2S)-2-methoxymethyl-cyclopropyl)-pyrimidine-4-carbonyl]-amino}-butyryl)-piperazine-1-carboxylic acid butyl ester]

Same assay, conditions: CHO cells with recombinant expression of the human P2Y12 receptor, 2 hours at RT, comparison with reference compounds of WO 2006/114774

Compound	pIC50
CCOC(=O)N1CCN(C(=O)[C@H](CCC(=O)O)NC(=O)c2cc(C3CC3)nc(-c3ccccc3)n2)CC1 [Example 90 of WO 2006/114774, reference compound]	7.37
CCOC(=O)N1CCN(C(=O)[C@H](CCC(=O)O)NC(=O)c2cc(C3CC3CO)nc(-c3ccccc3)n2)CC1 (some centres unmarked) [Example 500 of WO 2006/114774, reference compound]	7.64
